Data published in BigSolDB 2.1.

Nc1cc(Cl)nnc1Cl
Details | solubility (mole fraction)
in 1,4-dioxane, 289.15 K | 0.00294
in 1,4-dioxane, 293.65 K | 0.00365
in 1,4-dioxane, 298.15 K | 0.00427
in 1,4-dioxane, 303.15 K | 0.00556
in 1,4-dioxane, 308.15 K | 0.0066
in 1,4-dioxane, 313.15 K | 0.00811
in 1,4-dioxane, 318.15 K | 0.00982
in 1,4-dioxane, 323.15 K | 0.0121
in THF, 290.05 K | 0.0443
in THF, 295.15 K | 0.0484
in THF, 299.15 K | 0.0517
in THF, 303.15 K | 0.0556
in THF, 305.15 K | 0.057
in THF, 308.15 K | 0.0604
in THF, 313.65 K | 0.0648
in THF, 318.15 K | 0.0688
in THF, 323.15 K | 0.0752
in acetone, 295.65 K | 0.0244
in acetone, 298.15 K | 0.0258
in acetone, 300.65 K | 0.0276
in acetone, 303.15 K | 0.0293
in acetone, 305.65 K | 0.0311
in acetone, 308.15 K | 0.0327
in acetone, 310.65 K | 0.0342
in acetone, 313.15 K | 0.036
in acetone, 315.65 K | 0.0377
in acetone, 318.15 K | 0.0393
in acetone, 320.65 K | 0.041
in acetone, 323.15 K | 0.0427
in dichloromethane, 295.15 K | 7.41e-05
in dichloromethane, 297.15 K | 0.000111
in dichloromethane, 299.15 K | 0.000174
in dichloromethane, 301.15 K | 0.000262
in dichloromethane, 303.15 K | 0.000387
in dichloromethane, 305.15 K | 0.000543
in dichloromethane, 307.15 K | 0.000811
in dichloromethane, 309.15 K | 0.00117
in ethyl acetate, 295.65 K | 0.00111
in ethyl acetate, 298.15 K | 0.00134
in ethyl acetate, 300.65 K | 0.00159
in ethyl acetate, 303.15 K | 0.00192
in ethyl acetate, 305.65 K | 0.00235
in ethyl acetate, 308.15 K | 0.00303
in ethyl acetate, 310.65 K | 0.00371
in ethyl acetate, 313.15 K | 0.0049
in ethyl acetate, 315.65 K | 0.00577
in methanol, 295.65 K | 0.0142
in methanol, 298.15 K | 0.0153
in methanol, 300.65 K | 0.0161
in methanol, 303.15 K | 0.0169
in methanol, 305.65 K | 0.0178
in methanol, 308.15 K | 0.0189
in methanol, 310.65 K | 0.0201
in methanol, 313.15 K | 0.0214
in methanol, 315.65 K | 0.0229
